Active and inactive are the calls of the source. No cut-off for these calls is given here.
How the values were obtained:
Format in all cases: cell-based
[1] = target: T1, Acid-sensing ion channel 1 (Homo sapiens) (UniProt P78348); test: Inhibition of human ASIC1a endogenously expressed in HEK293 cells clamped at -100 mV gated ionic current at 100 uM at pH 5.0 by standard whole cell patch clamp assay
T1 sequence (whole entry): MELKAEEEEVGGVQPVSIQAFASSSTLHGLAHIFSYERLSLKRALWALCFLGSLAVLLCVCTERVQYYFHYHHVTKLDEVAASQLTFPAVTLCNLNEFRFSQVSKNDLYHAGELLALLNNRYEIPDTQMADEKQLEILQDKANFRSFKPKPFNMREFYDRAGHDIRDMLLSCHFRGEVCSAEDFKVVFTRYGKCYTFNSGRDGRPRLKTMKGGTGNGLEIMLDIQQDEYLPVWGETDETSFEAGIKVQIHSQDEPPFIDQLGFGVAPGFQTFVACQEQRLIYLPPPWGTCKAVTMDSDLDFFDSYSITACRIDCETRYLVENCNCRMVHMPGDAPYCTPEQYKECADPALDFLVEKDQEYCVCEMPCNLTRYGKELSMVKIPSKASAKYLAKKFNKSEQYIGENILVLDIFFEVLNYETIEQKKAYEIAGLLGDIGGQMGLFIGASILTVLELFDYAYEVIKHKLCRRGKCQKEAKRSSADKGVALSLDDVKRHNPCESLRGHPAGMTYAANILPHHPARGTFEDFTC

[2] = target: T1, Acid-sensing ion channel 1 (Homo sapiens); test: Inhibition of human ASIC1a endogenously expressed in HEK293 cells clamped at -100 mV gated ionic current at 10 uM at pH 5.0 by standard whole cell patch clamp assay
[3] = target: T1, Acid-sensing ion channel 1 (Homo sapiens); test: Inhibition of human ASIC1a endogenously expressed in HEK293 cells clamped at -100 mV gated ionic current at 100 uM at pH 6.7 by standard whole cell patch clamp assay
[4] = target: T1, Acid-sensing ion channel 1 (Homo sapiens); test: Inhibition of human ASIC1a endogenously expressed in HEK293 cells clamped at -100 mV gated ionic current at 10 uM at pH 6.7 by standard whole cell patch clamp assay
[5] = target: T1, Acid-sensing ion channel 1 (Homo sapiens); test: Inhibition of human ASIC1a endogenously expressed in HEK293 cells clamped at -100 mV gated ionic current at 100 nM at pH 5.0 by standard whole cell patch clamp assay
[6] = target: T1, Acid-sensing ion channel 1 (Homo sapiens); test: Inhibition of human ASIC1a endogenously expressed in HEK293 cells clamped at -100 mV gated ionic current at 100 nM at pH 6.7 by standard whole cell patch clamp assay
[7] = target: T1, Acid-sensing ion channel 1 (Homo sapiens); test: Reversible inhibition of human ASIC1a endogenously expressed in HEK293 cells clamped at -100 mV gated ionic current at 100 nM to 100 uM at pH 6.7 by standard whole cell patch clamp assay
[8] = target: T1, Acid-sensing ion channel 1 (Homo sapiens); test: Reversible inhibition of human ASIC1a endogenously expressed in HEK293 cells clamped at -100 mV gated ionic current at 100 nM to 100 uM at pH 5.0 by standard whole cell patch clamp assay

Row | inhibition [1] [%] | inhibition [2] [%] | inhibition [3] [%] | inhibition [4] [%] | inhibition [5] [%] | inhibition [6] [%] | inhibition [7] | inhibition [8] | SMILES
1 | 78.7 | 101 | 53.2 | 77.5 | – | – | – | – | CCN(CC)CCN(CC)c1ccc2cc(C(=N)N)c(=O)oc2c1
2 | 28.8 | 65.7 | 3.7 | 22.1 | 96.1 | 68.9 | Active | Active | CCN(CC)CCN(Cc1ccccc1)c1ccc2cc(C(=N)N)c(=O)oc2c1
3 | 41 | – | 49 | – | – | – | – | – | CCN(CC)c1ccc2cc(C(=N)N)c(=O)oc2c1

Reference: ChEMBL document CHEMBL3576804, “Novel Potent Orthosteric Antagonist of ASIC1a Prevents NMDAR-Dependent LTP Induction” (J Med Chem, 2015)
